Laboratory results: PubChem BioAssay AID2060603 (Molecular Pharmacology Branch, DTP, NCI, 2025)
pIC50: −log10 of the molar value. “And” between values parts separate entries of the source, which are not always exact repeats. Identical values can stand only once.

Test system: 422866-222-R5-J1-PDC spheroid viability
Assay: Anticancer human tumor 422866-222-R5-J1-PDC patient-derived pancreatic adenocarcinoma cell line growth inhibition [CLK]
Conditions: spheroids with HUVEC and MSC; for viability, T/C: stronger effect = lower value
How it was run: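 Patient-derived tumor cells grown as complex spheroids with HUVEC endothelial cells and mesenchymal stem cells, treated with drug combinations. Concentrations descend in half-log steps from near clinical Cmax, or from 10 microM if Cmax unknown.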

[1] = curve of first compound, second compound 0.0316 µM
[2] = curve of first compound, second compound 0.1 µM
[3] = curve of first compound, second compound 0.316 µM
[4] = curve of first compound, second compound 1 µM
[5] = curve of first compound, second compound 3.16 µM
[6] = curve of first compound, second compound 10 µM
[7] = second compound 0.0316 µM, first compound 0.0316 µM
[8] = second compound 0.0316 µM, first compound 0.1 µM
[9] = second compound 0.0316 µM, first compound 0.316 µM
[10] = second compound 0.0316 µM, first compound 1 µM
[11] = second compound 0.0316 µM, first compound 3.16 µM
[12] = second compound 0.0316 µM, first compound 10 µM
[13] = second compound 0.1 µM, first compound 0.0316 µM
[14] = second compound 0.1 µM, first compound 0.1 µM
[15] = second compound 0.1 µM, first compound 0.316 µM
[16] = second compound 0.1 µM, first compound 1 µM
[17] = second compound 0.1 µM, first compound 3.16 µM
[18] = second compound 0.1 µM, first compound 10 µM
[19] = second compound 0.316 µM, first compound 0.0316 µM
[20] = second compound 0.316 µM, first compound 0.1 µM
[21] = second compound 0.316 µM, first compound 0.316 µM
[22] = second compound 0.316 µM, first compound 1 µM
[23] = second compound 0.316 µM, first compound 3.16 µM
[24] = second compound 0.316 µM, first compound 10 µM
[25] = second compound 1 µM, first compound 0.0316 µM
[26] = second compound 1 µM, first compound 0.1 µM
[27] = second compound 1 µM, first compound 0.316 µM
[28] = second compound 1 µM, first compound 1 µM
[29] = second compound 1 µM, first compound 3.16 µM
[30] = second compound 1 µM, first compound 10 µM
[31] = second compound 3.16 µM, first compound 0.0316 µM
[32] = second compound 3.16 µM, first compound 0.1 µM
[33] = second compound 3.16 µM, first compound 0.316 µM
[34] = second compound 3.16 µM, first compound 1 µM
[35] = second compound 3.16 µM, first compound 3.16 µM
[36] = second compound 3.16 µM, first compound 10 µM
[37] = second compound 10 µM, first compound 0.0316 µM
[38] = second compound 10 µM, first compound 0.1 µM
[39] = second compound 10 µM, first compound 0.316 µM
[40] = second compound 10 µM, first compound 1 µM
[41] = second compound 10 µM, first compound 3.16 µM
[42] = second compound 10 µM, first compound 10 µM
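Note: spheroids exposed to agents for seven days before readout.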

`COC1C=CCC(C)C(C)S(=O)(=O)NC(=O)c2ccc3c(c2)N(CC2CCC21)CC1(CCCc2cc(Cl)ccc21)CO3` (stereo not drawn) + CNC(=O)c1ccc(Nc2nc(OC3CCCC3)c3c(-c4ccc5nc(C)oc5c4)c[nH]c3n2)c(OC)c1 was tested, and the pIC50 [1] was < 5.00, the pIC50 [2] was < 5.00 and the pIC50 [3] was < 5.00. For the same compound, the pIC50 [4] was < 5.00, the pIC50 [5] was < 5.00 and the pIC50 [6] was < 5.00. For the same compound, the viability, T/C [7] was 118%, the viability, T/C [8] was 112% and the viability, T/C [9] was 114%. For the same compound, the viability, T/C [10] was 96.4%, the viability, T/C [11] was 120% and the viability, T/C [12] was 84.6%. It also gave a viability, T/C [13] of 101%, a viability, T/C [14] of 92.9% and a viability, T/C [15] of 94.1%. The viability, T/C [16] was 89.2%, the viability, T/C [17] was 97.8% and the viability, T/C [18] was 79.6%. The viability, T/C [19] was 85.2%, the viability, T/C [20] was 86.5% and the viability, T/C [21] was 72.9%. It also gave a viability, T/C [22] of 82.3%, a viability, T/C [23] of 91.6% and a viability, T/C [24] of 86.6%. The viability, T/C [25] was 69.3%, the viability, T/C [26] was 68.7% and the viability, T/C [27] was 60%. For the same compound, the viability, T/C [28] was 63.9%, the viability, T/C [29] was 87% and the viability, T/C [30] was 82.2%. For the same compound, the viability, T/C [31] was 69.9%, the viability, T/C [32] was 61.5% and the viability, T/C [33] was 62.4%. For the same compound, the viability, T/C [34] was 57.9%, the viability, T/C [35] was 88% and the viability, T/C [36] was 82%. For the same compound, the viability, T/C [37] was 58%, the viability, T/C [38] was 59.5% and the viability, T/C [39] was 69.5%. It also gave a viability, T/C [40] of 72.8%, a viability, T/C [41] of 94.8% and a viability, T/C [42] of 91.5%.

In the case of `CCc1c2c(nc3ccc(O)cc13)-c1cc3c(c(=O)n1C2)COC(=O)[C@]3(O)CC`, the viability, T/C (compound 0.00316 µM) was 45.8% and 52.3%, the viability, T/C (compound 0.01 µM) was 37% and 43.1% and the viability, T/C (compound 0.0316 µM) was 44% and 44.3%. For the same compound, the viability, T/C (compound 0.1 µM) was 47.2% and 45.5%, the viability, T/C (compound 0.316 µM) was 41.7% and 43.5% and the viability, T/C (compound 1 µM) was 19.9% and 18.4%. For the same compound, the pIC50 (curve of compound) was > 8.50.

For `C=C(F)C(=O)N1CCN(c2nc(OCC3CCCN3C)nc3c2CCN(c2cccc4cccc(Cl)c24)C3)CC1CC#N` (stereo not drawn) + CNC(=O)c1ccc(Nc2nc(OC3CCCC3)c3c(-c4ccc5nc(C)oc5c4)c[nH]c3n2)c(OC)c1, the pIC50 [1] was > 7.50, the pIC50 [2] was > 7.50 and the pIC50 [3] was > 7.50. The pIC50 [4] was > 7.50, the pIC50 [5] was > 7.50 and the pIC50 [6] was > 7.50. For the same compound, the viability, T/C [7] was 39.9%, the viability, T/C [8] was 29.7% and the viability, T/C [9] was 23.2%. The viability, T/C [10] was 25.3%, the viability, T/C [11] was 15.7% and the viability, T/C [12] was 0.15%. The viability, T/C [13] was 38.7%, the viability, T/C [14] was 23.9% and the viability, T/C [15] was 23.3%. For the same compound, the viability, T/C [16] was 20.6%, the viability, T/C [17] was 15% and the viability, T/C [18] was 0.14%. It also gave a viability, T/C [19] of 29.8%, a viability, T/C [20] of 23.6% and a viability, T/C [21] of 25.1%. For the same compound, the viability, T/C [22] was 23.1%, the viability, T/C [23] was 14.8% and the viability, T/C [24] was 0.14%. It also gave a viability, T/C [25] of 30.3%, a viability, T/C [26] of 24.8% and a viability, T/C [27] of 22.4%. It also gave a viability, T/C [28] of 23.3%, a viability, T/C [29] of 18.2% and a viability, T/C [30] of 4.65%. The viability, T/C [31] was 28.4%, the viability, T/C [32] was 29.2% and the viability, T/C [33] was 24.5%. For the same compound, the viability, T/C [34] was 25%, the viability, T/C [35] was 20.4% and the viability, T/C [36] was 0.15%. The viability, T/C [37] was 30%, the viability, T/C [38] was 28.4% and the viability, T/C [39] was 28.1%. The viability, T/C [40] was 24.6%, the viability, T/C [41] was 18.5% and the viability, T/C [42] was 0.17%.

In the case of `COC1C=CCC(C)C(C)S(=O)(=O)NC(=O)c2ccc3c(c2)N(CC2CCC21)CC1(CCCc2cc(Cl)ccc21)CO3` (stereo not drawn) + CN1CCN(c2cc(C(=O)Nc3cc4cc(-c5cnn(C)c5)ccc4cn3)ccn2)CC1, the pIC50 [1] was < 5.00, the pIC50 [2] was < 5.00 and the pIC50 [3] was < 5.00. For the same compound, the pIC50 [4] was > 7.50, the pIC50 [5] was > 7.50 and the pIC50 [6] was > 7.50. For the same compound, the viability, T/C [7] was 102%, the viability, T/C [8] was 102% and the viability, T/C [9] was 113%. For the same compound, the viability, T/C [10] was 98.1%, the viability, T/C [11] was 97% and the viability, T/C [12] was 76.8%. For the same compound, the viability, T/C [13] was 131%, the viability, T/C [14] was 104% and the viability, T/C [15] was 105%. The viability, T/C [16] was 107%, the viability, T/C [17] was 114% and the viability, T/C [18] was 94.7%. It also gave a viability, T/C [19] of 103%, a viability, T/C [20] of 92.8% and a viability, T/C [21] of 104%. It also gave a viability, T/C [22] of 99%, a viability, T/C [23] of 113% and a viability, T/C [24] of 105%. The viability, T/C [25] was 29.4%, the viability, T/C [26] was 28.8% and the viability, T/C [27] was 38.5%. It also gave a viability, T/C [28] of 28.9%, a viability, T/C [29] of 38.7% and a viability, T/C [30] of 39.2%. It also gave a viability, T/C [31] of 8.76%, a viability, T/C [32] of 9.13% and a viability, T/C [33] of 9.74%. The viability, T/C [34] was 7.9%, the viability, T/C [35] was 9.36% and the viability, T/C [36] was 5.17%. The viability, T/C [37] was 2.4%, the viability, T/C [38] was 1.91% and the viability, T/C [39] was 1.69%. For the same compound, the viability, T/C [40] was 1.81%, the viability, T/C [41] was 2.33% and the viability, T/C [42] was 3.52%.
